Assay results reported in PubChem BioAssay AID1963838 (Molecular Pharmacology Branch, DTP, NCI, 2024).

Tested on: 855422-203-R-J1-PDC complex spheroid viability
Assay: Anticancer human tumor 855422-203-R-J1-PDC patient-derived bladder carcinoma cell line growth inhibition [POLQ]
Conditions: for IC50: curve of first compound; for viability, T/C: stronger effect = lower value
Procedure, shortened: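 Three-cell-type spheroids modelling solid tumor plus stroma served as the readout system; POL inhibitors were tested individually and in combination, concentration ranges set by clinical Cmax where known.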
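Also: spheroids exposed to compounds for seven days before readout.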

With `CC1COCCN1c1cc(-c2ccnn2C)c2ccnc(-c3ccn[nH]3)c2n1` (centres undefined) + Cc1cccc(N(C)C(=O)C2C(O)CCN2c2nc(C)cc(C(F)(F)F)c2C#N)c1 as the molecule, how does the IC50 (second compound 0.0316 µM) read?
Its IC50 is 168 nM.

And the IC50 (second compound 0.1 µM)?
Its IC50 is 152 nM.

What about the IC50 (second compound 0.316 µM) of the same molecule?
The IC50 was 167 nM.

And the IC50 (second compound 1 µM)?
The IC50 was 165 nM.

And the IC50 (second compound 3.16 µM)?
The IC50 was 155 nM.

What about the IC50 (second compound 10 µM) of the same molecule?
Its IC50 is 167 nM.

What about the viability, T/C (second compound 0.0316 µM, first compound 0.0316 µM) of the same molecule?
Its viability, T/C is 113%.

What about the viability, T/C (second compound 0.0316 µM, first compound 0.1 µM) of the same molecule?
Its viability, T/C is 73%.

What about the viability, T/C (second compound 0.0316 µM, first compound 0.316 µM) of the same molecule?
Its viability, T/C is 21.4%.

What about the viability, T/C (second compound 0.0316 µM, first compound 1 µM) of the same molecule?
Its viability, T/C is 12.4%.

What about the viability, T/C (second compound 0.0316 µM, first compound 3.16 µM) of the same molecule?
Its viability, T/C is 7.93%.

And the viability, T/C (second compound 0.0316 µM, first compound 10 µM)?
Its viability, T/C is 7.23%.

And the viability, T/C (second compound 0.1 µM, first compound 0.0316 µM)?
Its viability, T/C is 94.7%.

And the viability, T/C (second compound 0.1 µM, first compound 0.1 µM)?
Its viability, T/C is 68.9%.

What about the viability, T/C (second compound 0.1 µM, first compound 0.316 µM) of the same molecule?
The viability, T/C was 17.3%.

And the viability, T/C (second compound 0.1 µM, first compound 1 µM)?
The viability, T/C was 9.3%.

What about the viability, T/C (second compound 0.1 µM, first compound 3.16 µM) of the same molecule?
Its viability, T/C is 8.23%.

And the viability, T/C (second compound 0.1 µM, first compound 10 µM)?
The viability, T/C was 7.12%.

And the viability, T/C (second compound 0.316 µM, first compound 0.0316 µM)?
Its viability, T/C is 108%.

And the viability, T/C (second compound 0.316 µM, first compound 0.1 µM)?
Its viability, T/C is 73.4%.

And the viability, T/C (second compound 0.316 µM, first compound 0.316 µM)?
Its viability, T/C is 20.4%.

What about the viability, T/C (second compound 0.316 µM, first compound 1 µM) of the same molecule?
The viability, T/C was 10.9%.

What about the viability, T/C (second compound 0.316 µM, first compound 3.16 µM) of the same molecule?
The viability, T/C was 7.43%.

And the viability, T/C (second compound 0.316 µM, first compound 10 µM)?
Its viability, T/C is 7.37%.

What about the viability, T/C (second compound 1 µM, first compound 0.0316 µM) of the same molecule?
The viability, T/C was 111%.

What about the viability, T/C (second compound 1 µM, first compound 0.1 µM) of the same molecule?
Its viability, T/C is 70.3%.

And the viability, T/C (second compound 1 µM, first compound 0.316 µM)?
Its viability, T/C is 23.3%.

What about the viability, T/C (second compound 1 µM, first compound 1 µM) of the same molecule?
The viability, T/C was 11.7%.

What about the viability, T/C (second compound 1 µM, first compound 3.16 µM) of the same molecule?
Its viability, T/C is 8.35%.

What about the viability, T/C (second compound 1 µM, first compound 10 µM) of the same molecule?
The viability, T/C was 7.83%.

And the viability, T/C (second compound 3.16 µM, first compound 0.0316 µM)?
The viability, T/C was 105%.

What about the viability, T/C (second compound 3.16 µM, first compound 0.1 µM) of the same molecule?
Its viability, T/C is 66.8%.

And the viability, T/C (second compound 3.16 µM, first compound 0.316 µM)?
Its viability, T/C is 22.7%.

What about the viability, T/C (second compound 3.16 µM, first compound 1 µM) of the same molecule?
The viability, T/C was 10.6%.

What about the viability, T/C (second compound 3.16 µM, first compound 3.16 µM) of the same molecule?
The viability, T/C was 7.46%.

And the viability, T/C (second compound 3.16 µM, first compound 10 µM)?
The viability, T/C was 6.31%.

What about the viability, T/C (second compound 10 µM, first compound 0.0316 µM) of the same molecule?
The viability, T/C was 93.5%.

And the viability, T/C (second compound 10 µM, first compound 0.1 µM)?
The viability, T/C was 70.3%.

What about the viability, T/C (second compound 10 µM, first compound 0.316 µM) of the same molecule?
Its viability, T/C is 24.7%.

What about the viability, T/C (second compound 10 µM, first compound 1 µM) of the same molecule?
The viability, T/C was 12.4%.

And the viability, T/C (second compound 10 µM, first compound 3.16 µM)?
Its viability, T/C is 8.8%.

What about the viability, T/C (second compound 10 µM, first compound 10 µM) of the same molecule?
Its viability, T/C is 9.23%.

With `CC(=O)O[C@H]1C(=O)[C@@]2(C)[C@H]([C@H](OC(=O)c3ccccc3)[C@]3(O)C[C@H](OC(=O)[C@H](O)[C@@H](NC(=O)c4ccccc4)c4ccccc4)C(C)=C1C3(C)C)[C@]1(OC(C)=O)CO[C@@H]1C[C@@H]2O` + Nc1ccc(C#CCN(C(=O)Cc2ncc(C(F)(F)F)cc2C(F)(F)F)c2ccc(F)cc2)nn1 as the molecule, how does the IC50 (second compound 0.0316 µM) read?
The IC50 was < 9.49 nM.

What about the IC50 (second compound 0.1 µM) of the same molecule?
The IC50 was < 9.49 nM.

What about the IC50 (second compound 0.316 µM) of the same molecule?
The IC50 was < 9.49 nM.

And the IC50 (second compound 1 µM)?
The IC50 was < 9.49 nM.

What about the IC50 (second compound 3.16 µM) of the same molecule?
The IC50 was < 9.49 nM.

What about the IC50 (second compound 10 µM) of the same molecule?
The IC50 was < 9.49 nM.

What about the viability, T/C (second compound 0.0316 µM, first compound 0.00949 µM) of the same molecule?
The viability, T/C was 9.1%.

What about the viability, T/C (second compound 0.0316 µM, first compound 0.03 µM) of the same molecule?
The viability, T/C was 8.18%.

What about the viability, T/C (second compound 0.0316 µM, first compound 0.0949 µM) of the same molecule?
Its viability, T/C is 10.3%.

And the viability, T/C (second compound 0.0316 µM, first compound 0.3 µM)?
Its viability, T/C is 9.92%.

And the viability, T/C (second compound 0.0316 µM, first compound 0.949 µM)?
Its viability, T/C is 7.22%.

And the viability, T/C (second compound 0.0316 µM, first compound 3 µM)?
The viability, T/C was 9.23%.

What about the viability, T/C (second compound 0.1 µM, first compound 0.00949 µM) of the same molecule?
The viability, T/C was 12.1%.

And the viability, T/C (second compound 0.1 µM, first compound 0.03 µM)?
The viability, T/C was 8.86%.

And the viability, T/C (second compound 0.1 µM, first compound 0.0949 µM)?
The viability, T/C was 8.29%.

What about the viability, T/C (second compound 0.1 µM, first compound 0.3 µM) of the same molecule?
Its viability, T/C is 9.07%.

And the viability, T/C (second compound 0.1 µM, first compound 0.949 µM)?
The viability, T/C was 6.61%.

What about the viability, T/C (second compound 0.1 µM, first compound 3 µM) of the same molecule?
The viability, T/C was 8.93%.

What about the viability, T/C (second compound 0.316 µM, first compound 0.00949 µM) of the same molecule?
Its viability, T/C is 10.2%.

And the viability, T/C (second compound 0.316 µM, first compound 0.03 µM)?
The viability, T/C was 10%.

What about the viability, T/C (second compound 0.316 µM, first compound 0.0949 µM) of the same molecule?
The viability, T/C was 7.73%.

What about the viability, T/C (second compound 0.316 µM, first compound 0.3 µM) of the same molecule?
Its viability, T/C is 7.49%.

What about the viability, T/C (second compound 0.316 µM, first compound 0.949 µM) of the same molecule?
Its viability, T/C is 7.31%.

What about the viability, T/C (second compound 0.316 µM, first compound 3 µM) of the same molecule?
Its viability, T/C is 7.76%.

And the viability, T/C (second compound 1 µM, first compound 0.00949 µM)?
Its viability, T/C is 9.77%.

And the viability, T/C (second compound 1 µM, first compound 0.03 µM)?
The viability, T/C was 10.3%.

And the viability, T/C (second compound 1 µM, first compound 0.0949 µM)?
Its viability, T/C is 7.55%.

And the viability, T/C (second compound 1 µM, first compound 0.3 µM)?
The viability, T/C was 9.06%.

And the viability, T/C (second compound 1 µM, first compound 0.949 µM)?
Its viability, T/C is 7.76%.

And the viability, T/C (second compound 1 µM, first compound 3 µM)?
Its viability, T/C is 9.17%.

And the viability, T/C (second compound 3.16 µM, first compound 0.00949 µM)?
Its viability, T/C is 14.2%.

What about the viability, T/C (second compound 3.16 µM, first compound 0.03 µM) of the same molecule?
The viability, T/C was 8.33%.

And the viability, T/C (second compound 3.16 µM, first compound 0.0949 µM)?
Its viability, T/C is 9.73%.

And the viability, T/C (second compound 3.16 µM, first compound 0.3 µM)?
Its viability, T/C is 9.4%.

And the viability, T/C (second compound 3.16 µM, first compound 0.949 µM)?
Its viability, T/C is 12.7%.

And the viability, T/C (second compound 3.16 µM, first compound 3 µM)?
Its viability, T/C is 10.1%.

What about the viability, T/C (second compound 10 µM, first compound 0.00949 µM) of the same molecule?
The viability, T/C was 12.2%.

What about the viability, T/C (second compound 10 µM, first compound 0.03 µM) of the same molecule?
The viability, T/C was 10.5%.

And the viability, T/C (second compound 10 µM, first compound 0.0949 µM)?
The viability, T/C was 11.7%.

And the viability, T/C (second compound 10 µM, first compound 0.3 µM)?
The viability, T/C was 9.8%.

What about the viability, T/C (second compound 10 µM, first compound 0.949 µM) of the same molecule?
Its viability, T/C is 7.89%.

And the viability, T/C (second compound 10 µM, first compound 3 µM)?
The viability, T/C was 9.4%.
